US20220265591A1, “USE OF AN OSMOLYTE IN MANUFACTURE OF A MEDICAMENT FOR TREATMENT OF OCULAR DISORDERS” (SINGAPORE HEALTH SERVICES PTELTD, priority 2019, published 2022)

Columns and labels:
[1] = target: T1, TGFBIp611-633 G623R peptide (Homo sapiens, UniProt Q15582, G623R); experiment: ThT fluorescence microscopy, inhibition of amyloid fibrillation
T1 construct: The 23-amino acid long peptide (TGFBIp 611-633 c.623 G>R) from the 4th FAS1 domain; purchased Synpeptide Co Ltd, Shanghai, China; host or cells: synthetic peptide
T1 sequence (Q15582 611-633 G623R limits assumed): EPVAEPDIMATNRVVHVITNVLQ
Description: The inhibitory effects of the four osmolytes on amyloid fibrillation of the TGFBIp^611-633 G623R peptide were investigated further by fluorescence microscopy after ThT staining. The peptide samples collected at various time points above were incubated ThT at a ratio of 1:1 ratio in the dark for 30 minutes to obtain solutions for fluorescence microscopy. 25 μl of the solutions were taken on to slides with coverslips and visualized under a fluorescent microscope (Axiolmager Z1, Carl Zeiss, Oberkochen, Germany).
The inhibition effect of taurine on the amyloid fibrillation was investigated further by fluorescence microscopy after ThT staining. The samples collected at the various time points above were incubated ThT at a ratio of 1:1 ratio in the dark for 30 minutes to obtain solutions for fluorescence microscopy. 25 μl of the solutions were taken on to slides with coverslips and visualized under a fluorescent microscope.

[2] = target: T2, preformed amyloid fibrils from TGFBIp611-633 N622K peptide (Homo sapiens, UniProt Q15582, N622K); experiment: Circular Dichroism assay, disaggregation of preformed amyloid fibrils; assay type: biochemical; conditions: TGFBIp-N622K preformed fibrils, listed as taurine
T2 construct: purchased Synpeptide Co Ltd, Shanghai, China; host or cells: synthetic peptide
T2 sequence (Q15582 611-633 N622K limits assumed): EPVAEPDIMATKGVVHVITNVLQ
Description: The model peptides TGFBIp^611-633 G623R and TGFBIp^611-633 N622K were incubated in PBS for 24 hours for the TGFBIp^611-633 G623R peptide and 96 hours for the TGFBIp^611-633 N622K peptide, allowed to form uniform amyloid fibrils. The formation of amyloid fibrils was confirmed by (SEM) and CD spectroscopy.
Circular Dichroism (CD) spectroscopy was performed to study the disaggregation of the preformed amyloid fibrils. The preformed amyloid fibrils were treated with taurine at a concentration of 200 mM and 320 mM in PBS buffer at pH 7.0 for 24 h, 48 h and 72 respectively. The treatment solutions were studied by far UV-CD assay.

NCCS(=O)(=O)O [Taurine, taurine]
fluorescent intensity under microscope ([1]; 200 mM and 320 mM): reduction in fluorescent intensity
ThT fluorescence images, fluorescent spots ([1]; 200 mM, 24 h to 72 h, versus PBS control): relatively smaller fluorescent spots even after 24 h
% Dissolution at final time point, CD ([2]; 200 mM): 61%
% Dissolution at final time point, CD ([2]; 320 mM): 66%
